Results reported in ChEMBL document CHEMBL3885881, “DrugMatrix”.

Species on record: Rattus norvegicus
Assay: DrugMatrix - Regimen: Daily Repeat
Type: toxicity, organism-based, Sprague-Dawley
Parameters: regimen Daily Repeat, gender Male, age 6-8 weeks
Conditions: in vivo, po, route oral GAVAGE, vehicle .5 % CMC; for ABSOLUTE BASOPHIL / ABSOLUTE EOSINOPHIL / ABSOLUTE LYMPHOCYTE / ABSOLUTE MONOCYTE / ABSOLUTE SEGMENTED NEUTROPHIL / BASOPHIL / EOSINOPHIL / ERYTHROCYTE COUNT / HEMATOCRIT / HEMOGLOBIN / LEUKOCYTE COUNT / LYMPHOCYTE / MEAN CORPUSCULAR HEMOGLOBIN / MEAN CORPUSCULAR HEMOGLOBIN CONCENTRATION / MEAN CORPUSCULAR VOLUME / MONOCYTE / NEUTROPHIL / NUCLEATED RED BLOOD CELLS / PLATELET COUNT: tissue Blood; for ALANINE AMINOTRANSFERASE / ALBUMIN / ALKALINE PHOSPHATASE / ASPARTATE AMINOTRANSFERASE / BLOOD UREA NITROGEN / CARBON DIOXIDE / CHLORIDE / CHOLESTEROL / CREATINE PHOSPHOKINASE / CREATININE / GLUCOSE / LACTATE DEHYDROGENASE / LIPASE / PHOSPHORUS / POTASSIUM / SODIUM / TOTAL BILIRUBIN / TOTAL PROTEIN / URIC ACID: tissue Plasma
[1] = 40 mg/kg, 120 h, dose level Low, time 5 day
[2] = 1200 mg/kg, 72 h, dose level High, time 3 day
[3] = 1200 mg/kg, 120 h, dose level High, time 5 day

How did the “ABSOLUTE BASOPHIL” value [1] turn out when `C[C@@](Cc1ccc(O)c(O)c1)(NN)C(=O)O.O` [CARBIDOPA] was run?
Its value is 0 CELLS/uL.

What about the “ABSOLUTE EOSINOPHIL” value [1] of the same molecule?
Its value is 155.33 CELLS/uL.

What about the “ABSOLUTE LYMPHOCYTE” value [1] of the same molecule?
Its value is 12037.67 CELLS/uL.

And the “ABSOLUTE MONOCYTE” value [1]?
Its value is 0 CELLS/uL.

And the “ABSOLUTE SEGMENTED NEUTROPHIL” value [1]?
Its value is 1407 CELLS/uL.

What about the BASOPHIL [1] of the same molecule?
The BASOPHIL was 0%.

What about the EOSINOPHIL [1] of the same molecule?
The EOSINOPHIL was 1%.

What about the “ERYTHROCYTE COUNT” value [1] of the same molecule?
Its value is 5.47 x10E6/uL.

What about the HEMATOCRIT [1] of the same molecule?
The HEMATOCRIT was 34.83%.

And the HEMOGLOBIN [1]?
Its HEMOGLOBIN is 13.23 G/DL.

What about the “LEUKOCYTE COUNT” value [1] of the same molecule?
Its value is 13.6 x10E3/uL.

And the LYMPHOCYTE [1]?
The LYMPHOCYTE was 88.33%.

And the “MEAN CORPUSCULAR HEMOGLOBIN” value [1]?
Its value is 24.23 pg.

And the “MEAN CORPUSCULAR HEMOGLOBIN CONCENTRATION” value [1]?
Its value is 38 G/DL.

And the “MEAN CORPUSCULAR VOLUME” value [1]?
The value was 63.7 fL.

What about the MONOCYTE [1] of the same molecule?
Its MONOCYTE is 0%.

And the NEUTROPHIL [1]?
Its NEUTROPHIL is 10.67%.

And the “NUCLEATED RED BLOOD CELLS” value [1]?
Its value is 0 /100WBC.

And the “PLATELET COUNT” value [1]?
Its value is 1237.67 x10E3/uL.

What about the “ALANINE AMINOTRANSFERASE” value [1] of the same molecule?
Its value is 28.67 u/L.

What about the ALBUMIN [1] of the same molecule?
The ALBUMIN was 4.33 G/DL.

And the “ALKALINE PHOSPHATASE” value [1]?
Its value is 366.33 u/L.

And the “ASPARTATE AMINOTRANSFERASE” value [1]?
Its value is 83 u/L.

What about the “BLOOD UREA NITROGEN” value [1] of the same molecule?
The value was 16 mg/dL.

What about the “CARBON DIOXIDE” value [1] of the same molecule?
The value was 26 mmol/L.

And the CHLORIDE [1]?
Its CHLORIDE is 102.33 MEQ/L.

What about the CHOLESTEROL [1] of the same molecule?
Its CHOLESTEROL is 65.67 mg/dL.

And the “CREATINE PHOSPHOKINASE” value [1]?
Its value is 277.33 u/L.

What about the CREATININE [1] of the same molecule?
Its CREATININE is 0.2 mg/dL.

What about the GLUCOSE [1] of the same molecule?
The GLUCOSE was 155.67 mg/dL.

And the “LACTATE DEHYDROGENASE” value [1]?
Its value is 251 u/L.

And the LIPASE [1]?
Its LIPASE is 8.33 u/L.

And the PHOSPHORUS [1]?
Its PHOSPHORUS is 12.53 mg/dL.

What about the POTASSIUM [1] of the same molecule?
Its POTASSIUM is 6.15 MEQ/L.

What about the SODIUM [1] of the same molecule?
Its SODIUM is 144.4 MEQ/L.

And the “TOTAL BILIRUBIN” value [1]?
The value was 0.2 mg/dL.

And the “TOTAL PROTEIN” value [1]?
Its value is 6.03 G/DL.

What about the “URIC ACID” value [1] of the same molecule?
Its value is 1.4 mg/dL.

What about the “ABSOLUTE BASOPHIL” value [2] of the same molecule?
The value was 0 CELLS/uL.

What about the “ABSOLUTE EOSINOPHIL” value [2] of the same molecule?
Its value is 309.67 CELLS/uL.

And the “ABSOLUTE LYMPHOCYTE” value [2]?
The value was 11320 CELLS/uL.

What about the “ABSOLUTE MONOCYTE” value [2] of the same molecule?
Its value is 0 CELLS/uL.

And the “ABSOLUTE SEGMENTED NEUTROPHIL” value [2]?
The value was 1103.67 CELLS/uL.

And the BASOPHIL [2]?
Its BASOPHIL is 0%.

And the EOSINOPHIL [2]?
Its EOSINOPHIL is 2.33%.

What about the “ERYTHROCYTE COUNT” value [2] of the same molecule?
Its value is 5.55 x10E6/uL.

And the HEMATOCRIT [2]?
The HEMATOCRIT was 35.43%.

What about the HEMOGLOBIN [2] of the same molecule?
The HEMOGLOBIN was 13.47 G/DL.

What about the “LEUKOCYTE COUNT” value [2] of the same molecule?
The value was 12.73 x10E3/uL.

And the LYMPHOCYTE [2]?
Its LYMPHOCYTE is 88.67%.

And the “MEAN CORPUSCULAR HEMOGLOBIN” value [2]?
Its value is 24.3 pg.

And the “MEAN CORPUSCULAR HEMOGLOBIN CONCENTRATION” value [2]?
Its value is 38.03 G/DL.

And the “MEAN CORPUSCULAR VOLUME” value [2]?
The value was 63.83 fL.

What about the MONOCYTE [2] of the same molecule?
The MONOCYTE was 0%.

And the NEUTROPHIL [2]?
The NEUTROPHIL was 9%.

And the “NUCLEATED RED BLOOD CELLS” value [2]?
Its value is 0 /100WBC.

What about the “PLATELET COUNT” value [2] of the same molecule?
The value was 1345.33 x10E3/uL.

What about the “ALANINE AMINOTRANSFERASE” value [2] of the same molecule?
Its value is 8.67 u/L.

What about the ALBUMIN [2] of the same molecule?
Its ALBUMIN is 4.63 G/DL.

And the “ALKALINE PHOSPHATASE” value [2]?
Its value is 300.67 u/L.

What about the “ASPARTATE AMINOTRANSFERASE” value [2] of the same molecule?
The value was 64.67 u/L.

What about the “BLOOD UREA NITROGEN” value [2] of the same molecule?
The value was 22.33 mg/dL.

What about the “CARBON DIOXIDE” value [2] of the same molecule?
The value was 26 mmol/L.

What about the CHLORIDE [2] of the same molecule?
The CHLORIDE was 99 MEQ/L.

What about the CHOLESTEROL [2] of the same molecule?
The CHOLESTEROL was 92.33 mg/dL.

And the “CREATINE PHOSPHOKINASE” value [2]?
The value was 315 u/L.

What about the CREATININE [2] of the same molecule?
Its CREATININE is 0.24 mg/dL.

And the GLUCOSE [2]?
The GLUCOSE was 171.33 mg/dL.

And the “LACTATE DEHYDROGENASE” value [2]?
Its value is 80 u/L.

What about the LIPASE [2] of the same molecule?
Its LIPASE is 8.67 u/L.

And the PHOSPHORUS [2]?
Its PHOSPHORUS is 12.73 mg/dL.

And the POTASSIUM [2]?
Its POTASSIUM is 6.79 MEQ/L.

And the SODIUM [2]?
The SODIUM was 143.93 MEQ/L.

What about the “TOTAL BILIRUBIN” value [2] of the same molecule?
The value was 0.17 mg/dL.

And the “TOTAL PROTEIN” value [2]?
Its value is 6.5 G/DL.

What about the “URIC ACID” value [2] of the same molecule?
Its value is 1.6 mg/dL.

And the “ABSOLUTE BASOPHIL” value [3]?
The value was 0 CELLS/uL.

What about the “ABSOLUTE EOSINOPHIL” value [3] of the same molecule?
Its value is 0 CELLS/uL.

What about the “ABSOLUTE LYMPHOCYTE” value [3] of the same molecule?
Its value is 11666 CELLS/uL.

And the “ABSOLUTE MONOCYTE” value [3]?
The value was 86.67 CELLS/uL.

And the “ABSOLUTE SEGMENTED NEUTROPHIL” value [3]?
Its value is 847.33 CELLS/uL.

What about the BASOPHIL [3] of the same molecule?
The BASOPHIL was 0%.

And the EOSINOPHIL [3]?
The EOSINOPHIL was 0%.

What about the “ERYTHROCYTE COUNT” value [3] of the same molecule?
Its value is 6.03 x10E6/uL.

And the HEMATOCRIT [3]?
Its HEMATOCRIT is 37.47%.

What about the HEMOGLOBIN [3] of the same molecule?
Its HEMOGLOBIN is 14.13 G/DL.

What about the “LEUKOCYTE COUNT” value [3] of the same molecule?
The value was 12.6 x10E3/uL.

What about the LYMPHOCYTE [3] of the same molecule?
The LYMPHOCYTE was 92.33%.

What about the “MEAN CORPUSCULAR HEMOGLOBIN” value [3] of the same molecule?
The value was 23.43 pg.

And the “MEAN CORPUSCULAR HEMOGLOBIN CONCENTRATION” value [3]?
The value was 37.7 G/DL.

What about the “MEAN CORPUSCULAR VOLUME” value [3] of the same molecule?
The value was 62.1 fL.

And the MONOCYTE [3]?
Its MONOCYTE is 0.67%.

And the NEUTROPHIL [3]?
Its NEUTROPHIL is 7%.

And the “NUCLEATED RED BLOOD CELLS” value [3]?
The value was 0 /100WBC.

And the “PLATELET COUNT” value [3]?
The value was 1184.67 x10E3/uL.

And the “ALANINE AMINOTRANSFERASE” value [3]?
The value was 6.67 u/L.

What about the ALBUMIN [3] of the same molecule?
The ALBUMIN was 4.57 G/DL.

What about the “ALKALINE PHOSPHATASE” value [3] of the same molecule?
Its value is 323.33 u/L.

What about the “ASPARTATE AMINOTRANSFERASE” value [3] of the same molecule?
Its value is 44 u/L.

And the “BLOOD UREA NITROGEN” value [3]?
Its value is 20 mg/dL.

And the “CARBON DIOXIDE” value [3]?
The value was 28 mmol/L.

And the CHLORIDE [3]?
The CHLORIDE was 101.33 MEQ/L.

What about the CHOLESTEROL [3] of the same molecule?
Its CHOLESTEROL is 58.67 mg/dL.

What about the “CREATINE PHOSPHOKINASE” value [3] of the same molecule?
Its value is 151.67 u/L.

And the CREATININE [3]?
Its CREATININE is 0.21 mg/dL.

And the GLUCOSE [3]?
Its GLUCOSE is 157.67 mg/dL.

What about the “LACTATE DEHYDROGENASE” value [3] of the same molecule?
Its value is 98 u/L.

What about the LIPASE [3] of the same molecule?
The LIPASE was 8 u/L.

And the PHOSPHORUS [3]?
Its PHOSPHORUS is 11.57 mg/dL.

And the POTASSIUM [3]?
Its POTASSIUM is 6.41 MEQ/L.

And the SODIUM [3]?
The SODIUM was 146.5 MEQ/L.

And the “TOTAL BILIRUBIN” value [3]?
The value was 0.17 mg/dL.

And the “TOTAL PROTEIN” value [3]?
The value was 6.27 G/DL.

And the “URIC ACID” value [3]?
The value was 1.5 mg/dL.
